Reference: US20140255518A1, “Treatment and Prevention of Gastrointestinal Syndrome” (THOMAS JEFFERSON UNIVERSITY HOSPITALS, INC., priority 2011, published 2014)
Like-named read-outs stand apart in the source and are kept apart here. No end group written: not given here.

What was measured:
[1] = system: HCT116 cells (P53 wildtype); experiment: IR-induced cell death after cGMP preconditioning, HCT116 (P53 wildtype); assay type: cell-based, human; details: HCT116 cells (P53 wildtype) preconditioned with cGMP; FIG. 3 (A)
Method: (§1) Experiments were performed to show the requirement of GCC activation in the protection of small intestine and colon cells from apoptosis and genotoxic induced cell death. The role of activation of GCC and of the presence of p53 was also evaluated. Test on cancer cells were performed to compare the protection by cGMP of colon cancer cells from cell death in compared to cGMP's potentiation of cell death in other cancers.

[2] = system: HCT116P53−/− cells (P53 null); experiment: IR-induced cell death after cGMP preconditioning, HCT116 P53 null; assay type: cell-based, human; details: HCT116P53−/− cells (P53 null) preconditioned with cGMP; FIG. 3 (B)
Method: as §1

human colon cells = experiment: Cell death after irinotecan (CPT11) challenge, human colon cells; assay type: cell-based; details: irinotecan (CPT11, 100 μM)
Method: as §1

[3] = system: human breast cancer cells; experiment: CPT11-induced cell death after cGMP preconditioning, breast cancer cells; assay type: cell-based; details: cGMP precondition
Method: as §1

human liver cancer cells = experiment: CPT11-induced cell death after cGMP preconditioning, liver cancer cells; assay type: cell-based; details: cGMP precondition
Method: as §1

[4] = system: human prostate cancer cells; experiment: CPT11-induced cell death after cGMP preconditioning, prostate cancer cells; assay type: cell-based; details: cGMP precondition
Method: as §1

HCT116 cells = experiment: CPT11-induced cell death after cGMP preconditioning, HCT116 cells; assay type: cell-based, human; details: HCT116 cells preconditioned with cGMP
Method: as §1

[5] = system: irradiated intestinal tissue; details: cited from earlier work
[6] = target: ST receptors / guanylate cyclase (Homo sapiens, UniProt P25092); details: compared with native ST; cited from earlier work
Sequence of ST receptors / guanylate cyclase (P25092 24-1073): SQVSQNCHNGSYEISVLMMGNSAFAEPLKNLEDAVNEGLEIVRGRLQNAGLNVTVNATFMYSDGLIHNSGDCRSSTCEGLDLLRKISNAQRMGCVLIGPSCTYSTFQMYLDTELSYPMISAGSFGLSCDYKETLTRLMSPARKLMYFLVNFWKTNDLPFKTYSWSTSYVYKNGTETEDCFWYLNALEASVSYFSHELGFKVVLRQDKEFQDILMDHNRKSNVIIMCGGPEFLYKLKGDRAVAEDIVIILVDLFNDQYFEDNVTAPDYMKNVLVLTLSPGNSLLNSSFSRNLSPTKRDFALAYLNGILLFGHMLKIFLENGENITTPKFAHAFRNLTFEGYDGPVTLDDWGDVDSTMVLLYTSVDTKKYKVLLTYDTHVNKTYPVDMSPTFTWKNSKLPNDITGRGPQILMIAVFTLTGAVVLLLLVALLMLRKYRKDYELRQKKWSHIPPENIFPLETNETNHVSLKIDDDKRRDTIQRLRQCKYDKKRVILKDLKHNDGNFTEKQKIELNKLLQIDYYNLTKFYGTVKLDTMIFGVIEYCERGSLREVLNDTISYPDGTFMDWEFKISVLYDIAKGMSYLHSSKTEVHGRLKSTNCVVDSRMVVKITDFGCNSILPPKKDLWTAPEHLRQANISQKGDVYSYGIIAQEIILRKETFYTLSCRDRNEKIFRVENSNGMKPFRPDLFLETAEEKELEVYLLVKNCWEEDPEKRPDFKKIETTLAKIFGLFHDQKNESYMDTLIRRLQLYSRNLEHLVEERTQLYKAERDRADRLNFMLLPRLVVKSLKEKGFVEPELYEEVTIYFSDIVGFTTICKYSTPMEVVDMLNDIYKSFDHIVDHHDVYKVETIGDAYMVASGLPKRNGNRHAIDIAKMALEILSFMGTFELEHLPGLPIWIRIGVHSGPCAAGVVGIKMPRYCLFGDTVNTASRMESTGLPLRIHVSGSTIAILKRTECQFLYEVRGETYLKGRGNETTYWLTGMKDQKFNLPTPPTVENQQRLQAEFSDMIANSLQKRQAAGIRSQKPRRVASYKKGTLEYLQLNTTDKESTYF

Row | Molecule | IR-induced cell death [1] | protection from IR-induced cell death [2] | cell death in response to irinotecan challenge (human colon cells) | cell death induced by CPT11 [3] | cell death induced by CPT11 (human liver cancer cells) | cell death induced by CPT11 [4] | CPT11-induced cell death (HCT116 cells) | P53 dependence of protection from CPT11-induced cell death (HCT116 cells) | level of apoptosis in irradiated intestinal tissue ([5]; mice lacking genes encoding GCC or uroguanylin, cGMP supplementation (cGMP analog injected)) | level of apoptosis in irradiated intestinal tissue ([5]; wild type mice, cGMP supplementation) | binding to ST receptors and activation of guanylate cyclase, level relative to native ST [6]
1 | Nc1nc2c(ncn2[C@@H]2O[C@@H]3COP(=O)(O)O[C@H]3[C@H]2O)c(=O)[nH]1 [cGMP, cyclic GMP] | resisted IR-induced cell death | protection by cGMP preconditioning did not occur | protected cell death | promoted cell death | promoted cell death | promoted cell death | resisted CPT11-induced cell death | protection was P53 dependent | ameriolated the level of apoptosis | not in wild type mice | –
2 | Guanylin: 15 amino acid peptide from mammalian intestine, about 50% sequence homology to ST; native GCC agonist (SEQ ID NO:6, 54) (PGTCEICAYAACTGC; ends and bridges not checked; cysteine pairing not given here; UniProt Q02747 101-115, looked up) | – | – | – | – | – | – | – | – | – | – | 10- to 100 fold less than native ST
